The structures appear in SMILES notation. pIC50: −log10 of the molar value.

The target of this assay is T1, SUMO-activating enzyme subunit 2 (Human, UniProt Q9UBT2).
T1 sequence (Q9UBT2 whole entry): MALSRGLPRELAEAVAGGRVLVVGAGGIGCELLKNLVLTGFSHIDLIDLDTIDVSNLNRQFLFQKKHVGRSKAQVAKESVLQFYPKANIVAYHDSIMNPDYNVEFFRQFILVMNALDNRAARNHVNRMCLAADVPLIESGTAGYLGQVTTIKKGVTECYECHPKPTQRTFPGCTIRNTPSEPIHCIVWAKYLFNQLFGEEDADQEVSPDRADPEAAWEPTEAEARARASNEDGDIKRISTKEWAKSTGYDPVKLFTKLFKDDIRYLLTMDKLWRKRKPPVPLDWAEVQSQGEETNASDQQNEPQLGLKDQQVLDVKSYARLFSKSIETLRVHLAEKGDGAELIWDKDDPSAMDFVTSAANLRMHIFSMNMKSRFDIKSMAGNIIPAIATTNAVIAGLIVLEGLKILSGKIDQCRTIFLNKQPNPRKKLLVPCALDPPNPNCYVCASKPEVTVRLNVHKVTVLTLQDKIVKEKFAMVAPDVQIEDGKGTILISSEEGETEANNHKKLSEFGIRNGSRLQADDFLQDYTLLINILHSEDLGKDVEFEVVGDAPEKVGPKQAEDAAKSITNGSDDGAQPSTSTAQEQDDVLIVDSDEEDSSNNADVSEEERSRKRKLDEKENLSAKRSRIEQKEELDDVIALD
Description: Enzyme Assay. Here is the method: After incubation for 2 hours at 24° C., quantification of FRET is performed on the Pherostar (BMG Labtech). Percentage inhibition values at a single concentration or enzyme inhibition (IC50) values are determined from those curves. One skilled in the art will appreciate that the values generated either as percentage inhibition at a single concentration or IC50 values are subject to experimental variation.
As for `NS(=O)(=O)OC[C@H]1C[C@@H](Nc2ncncc2C(=O)c2cc(Cc3cccc(Br)n3)c(Cl)s2)C[C@@H]1O` [US10780090, Compound I-46], the pIC50 is > 8.00.

Regarding `Cc1sc(C(=O)c2cncnc2N[C@@H]2C[C@H](COS(N)(=O)=O)[C@@H](O)C2)cc1[S@+]([O-])c1cccc(C(F)(F)F)c1` [US10780090, Compound I-69], the negative logarithm of the IC50 (pIC50) is > 8.00.

Take `NS(=O)(=O)OC[C@H]1C[C@@H](Nc2ncncc2C(=O)c2cc(Cc3cccc(Br)c3)c(Cl)s2)C[C@@H]1O` [US10780090, Compound I-112]: the pIC50 is > 8.00.

Regarding `Cc1sc(C(=O)c2cncnc2N[C@@H]2C[C@H](COS(N)(=O)=O)[C@@H](O)C2)cc1[C@@H]1OCC(F)(F)c2ccc(Cl)cc21` [US10780090, Compound I-288], the pIC50 is > 8.00.

For the molecule `CN1Cc2ccccc2[C@@H]1c1cc(C(=O)c2cncnc2N[C@@H]2C[C@H](COS(N)(=O)=O)[C@@H](O)C2)sc1Cl` [US10780090, Compound I-304], the pIC50 is > 8.00.

As for `CN1Cc2ccccc2[C@@H]1c1csc(C(=O)c2cncnc2N[C@@H]2C[C@H](COS(N)(=O)=O)[C@@H](O)C2)c1` [US10780090, Compound I-308], the pIC50 is > 8.00.

On to `Cc1sc(C(=O)c2cncnc2N[C@@H]2C[C@H](COS(N)(=O)=O)[C@@H](O)C2)cc1[C@@H]1OCCc2ccc(C#N)cc21` [US10780090, Compound I-313], for which the pIC50 is > 8.00.

For `C[C@@]1(c2csc(C(=O)c3cncnc3N[C@@H]3C[C@H](COS(N)(=O)=O)[C@@H](O)C3)c2)NCCc2ccccc21` [US10780090, Compound I-318], the pIC50 is > 8.00.

Consider `Cc1sc(C(=O)c2cncnc2N[C@@H]2C[C@H](COS(N)(=O)=O)[C@@H](O)C2)cc1[C@@H]1OCC(F)(F)c2ncccc21` [US10780090, Compound I-331], for which the pIC50 is 6.00 to 7.00.

`CC(C)(C)OC(=O)N1CCc2ccc(Cl)cc2[C@@H]1c1csc(C(=O)c2cncnc2N[C@@H]2C[C@H](COS(N)(=O)=O)[C@@H](O)C2)c1` [US10780090, Compound I-334]: the pIC50 is 6.00 to 7.00.

Take `CC(C)(C)OC(=O)N1CCc2ccc(Cl)cc2[C@@H]1c1cc(C(=O)c2cncnc2N[C@@H]2C[C@H](COS(N)(=O)=O)[C@@H](O)C2)sc1Cl` [US10780090, Compound I-336]: the pIC50 is 6.00 to 7.00.

As to `CN(c1ncncc1C(=O)c1cc([C@@H]2OCCc3ccc(Cl)cc32)c(CO)s1)[C@@H]1C[C@H](COS(N)(=O)=O)[C@@H](O)C1` [US10780090, Compound I-366], the pIC50 was > 8.00.
